Earlier results on 3 molecules are cited in US11883453B2, “Formulation based on medicinal plant, or part or extract thereof, use of the formulation and product including said formulation” (priority 2018, dated 2024).

The test system of data set [1] is 3T3 fibroblast strains. To be noted: MTT, 3T3 fibroblasts.
For data set [2] the following is noted: rate proportional to concentration.
The conditions of data set [3]: disk-diffusion.
Data set [4] deals with 3T3 fibroblast strains. The note with it: Scratch Assay, 3T3 fibroblasts, compared to Calendula extract.

Consider `C=C(C)[C@@H]1CC[C@]2(C)CC[C@]3(C)[C@H](CC[C@@H]4[C@@]5(C)CC[C@H](O)C(C)(C)[C@@H]5CC[C@]43C)[C@@H]12` [Lupeol], for which, in the data set with 3T3 fibroblast strains [1], the Cytotoxicity entry is “no toxicity found”. For the same molecule, the “Elimination of free radicals” value in data set [2] was “excellent properties to eliminate free radicals”. The “Antimicrobial activity (inhibition halos in agar)” value in data set [3] is given as “confirmed the antimicrobial activity”.

With `CCCCCCCCCCCCCCCC(=O)OC1CCC2(C)C(CCC3(C)C2CCC2C4C(C)C(C)=CCC4(C)C(O)CC23C)C1(C)C` (centres unmarked) [faradiol palmitate], in the data set on 3T3 fibroblast strains [4], the “Effect on in vitro healing” value is “partial role in the healing process compared to the extract”.

As for `CCCCCCCCCCCCCC(=O)OC1CCC2(C)C(CCC3(C)C2CCC2C4C(C)C(C)=CCC4(C)C(O)CC23C)C1(C)C` (centres unmarked) [faradiol myristate], in the data set on 3T3 fibroblast strains [4], the “Effect on in vitro healing” value is listed as “partial role in the healing process compared to the extract”.
